Legend:
Type in all cases: functional
Cavia porcellus [1] = organism: Cavia porcellus; assay: The inhibitory activity is expressed as percentage of the maximal contraction induced by Ach 3 mM at 3*10e-4 M
Cavia porcellus [2] = organism: Cavia porcellus; assay: The inhibitory activity is expressed as percentage of the maximal contraction induced by histamine
Cavia porcellus [3] = organism: Cavia porcellus; assay: The inhibitory activity is expressed as percentage of the maximal contraction induced by KCl
Cavia porcellus [4] = organism: Cavia porcellus; assay: The inhibitory activity is expressed as percentage of the maximal contraction induced by 30 mM KCl dependent on extracellular Ca+2 influx at 10e-4 M
Cavia porcellus [5] = organism: Cavia porcellus; assay: The -logEC50 value of genistein on ACh-precontracted rings, where EC50 is the concentration causing 50% relaxation
Cavia porcellus [6] = organism: Cavia porcellus; assay: The inhibitory activity is expressed as percentage of the maximal contraction induced by 30 mM KCl dependent on extracellular Ca+2 influx at 10e-5 M

## O=c1c(-c2ccc(F)c(F)c2)coc2cc(O)cc(O)c12
Cavia porcellus [1]
  Max effect: 33

## O=c1c(-c2ccc(F)cc2F)coc2cc(O)cc(O)c12
Cavia porcellus [1]
  Max effect: 36
Cavia porcellus [2]
  Max effect: 73
Cavia porcellus [3]
  Max effect: 78
Cavia porcellus [4]
  Max effect: 41

## O=c1c(-c2ccc(F)cc2)coc2cc(O)cc(O)c12
Cavia porcellus [1]
  Max effect: 26
Cavia porcellus [2]
  Max effect: 69
Cavia porcellus [3]
  Max effect: 71
Cavia porcellus [4]
  Max effect: 36

## CC(C)(C)NCC(O)c1ccc(O)c(CO)c1 (configuration not stated) [ALBUTEROL]
Cavia porcellus [5]
  EC50: 0.0759 µM

## Cn1c(=O)c2[nH]cnc2n(C)c1=O [AMINOPHYLLINE]
Cavia porcellus [5]
  EC50: 525 µM

## O=c1c(-c2ccc(O)cc2)coc2cc(O)cc(O)c12 [GENISTEIN]
Cavia porcellus [1]
  Max effect: 66
Cavia porcellus [6]
  Max effect: 35
Cavia porcellus [2]
  Max effect: 98
Cavia porcellus [3]
  Max effect: 88
Cavia porcellus [4]
  Max effect: 79
Cavia porcellus [5]
  EC50: 195 µM

Reference: ChEMBL document CHEMBL1129872, “GENISTEIN AND FLUORINATED ANALOGS SUPPRESS AGONIST-INDUCED AIRWAY SMOOTH MUSCLE CONTRACTION” (Bioorg Med Chem Lett, 1997)
